Data from patent publication US20210292306A1, “NOVEL INDOLE DERIVATIVE AND ANTI-CANCER CONPOSITION CONTAINING SAME” (KOREA RESEARCH INSTITUTE OF BIOSCIENCE AND BIOTECHNOLOGY, priority 2016, published 2021).

Tests used:
[1] = system: human-derived skin cancer cell line (A431); experiment: Anti-cancer effect in human-derived skin cancer cell (A431) implantation nude mouse model; format: in vivo, BALB/C female nude mouse; details: for tumor growth inhibition: days 0-23, last day (day 23), vs solvent control; for tumor weight reduction: excised A431 tumors weighed
Experimental: The human cancer cell line A431 which was kept frozen in liquid nitrogen was thawed and cell culture was conducted. Cells were cultured in a CO2 incubator (Forma, USA) at 37° C. and 5% CO2 for an appropriate period of time. On the last day of culture, all cancer cells were collected and counted and the cell concentration was adjusted to 1×10^7 cells/ml using serum free media. The culture solution thus prepared was injected subcutaneously in the axillary region between the scapula and chest wall in an amount of 0.3 ml per BALB/C female nude mouse (5 weeks old, Nara Biotech) (3×10^6 cells/mouse). […] To examine the toxicity levels of the repeated intraperitoneal administration of WCI-1031 to A431 cancer cell implantation nude mice, general symptoms and weight changes of the animals were observed during the administration period. […] On day 23 after the start of the drug administration, blood was taken from the mice through ophthalmic veins 2 hours after the last administration, and the mice were sacrificed using CO2 gas. Then the mice were photographed and the tumors was isolated and weighed in a chemical balance. After taking photographs, each tumor was divided in half, and the resultant tumors were fixed to liquid nitrogen and formalin, respectively.

[2] = system: Hep3B; experiment: Anti-proliferative activity in other cancer cell lines (MTT assay); format: cell-based; details: Homo sapiens, 96 h, Hep3B (liver), 4 days, mean of three assays
Experimental: (§1) HeLa cells (ATCC, USA), which are a human cervical cancer cell line, were dispensed into a 96-well plate at 2×10^3 cells/well, and the cells were treated with DMSO or the indole derivatives of the present invention, and then allowed to grow for 4 days. And then, MTT (3-(4,5-Dimethylthiazol-2-yl)-2,5-diphenyltetrazolium bromide) reagent was added to the wells at 10 μl/well. After 2 hours, the absorbance was measured at “OD 450” and statistical values were obtained using the plizm6 program. The data represent mean values of the results of two repeated assays (Table 1).
(§2) Specifically, various cancer cell lines were cultured on a microtiter plate (1-3×10^3 cells/well), and the cells were treated with the indole derivative of the present invention and cultured for 4 days. Cytotoxicity was examined by the MTT assay by the same method as in Experimental Example 1-1, and the IC50 was obtained by the log-dose response curve. The data represent mean values of the results of three repeated assays (Table 2).

[3] = system: NCIH-125; experiment: as above; format: cell-based; details: Homo sapiens, NCI-H125, 96 h, NCIH-125 (lung), 4 days, mean of three assays
Experimental: as §1, §2

[4] = system: A431; experiment: as above; format: cell-based; details: Homo sapiens, A-431, 96 h, A431 (skin), 4 days, mean of three assays
Experimental: as §1, §2

[5] = system: HepG2; experiment: as above; format: cell-based; details: Homo sapiens, 96 h, HepG2 (liver), 4 days, mean of three assays
Experimental: as §1, §2

[6] = system: Wehi 3; experiment: as above; format: cell-based; details: 96 h, Wehi 3 (bone marrow), 4 days, mean of three assays
Experimental: as §1, §2

[7] = system: MCF7; experiment: as above; format: cell-based; details: Homo sapiens, 96 h, MCF7 (breast), 4 days, mean of three assays
Experimental: as §1, §2

[8] = system: K562; experiment: as above; format: cell-based; details: Homo sapiens, 96 h, K562 (bone marrow), 4 days, mean of three assays
Experimental: as §1, §2

[9] = system: A172; experiment: as above; format: cell-based; details: Homo sapiens, A 172, 96 h, A172 (brain), 4 days, mean of three assays
Experimental: as §1, §2

[10] = system: NCIH-1299; experiment: as above; format: cell-based; details: Homo sapiens, NCI-H1299, 96 h, NCIH-1299 (lung), 4 days, mean of three assays
Experimental: as §1, §2

[11] = system: U373MG; experiment: as above; format: cell-based; details: Homo sapiens, U373 MG, 96 h, U373MG (brain), 4 days, mean of three assays
Experimental: as §1, §2

[12] = system: HeLa; experiment: as above; format: cell-based; details: Homo sapiens, 96 h, HeLa (uterine cervix), 4 days, mean of three assays
Experimental: as §1, §2

[13] = system: SNU 484; experiment: as above; format: cell-based; details: 96 h, SNU 484 (stomach), 4 days, mean of three assays
Experimental: as §1, §2

[14] = system: PC3; experiment: as above; format: cell-based; details: Homo sapiens, PC-3, 96 h, PC3 (prostate), 4 days, mean of three assays
Experimental: as §1, §2

For `COC(=O)Cn1c(C)c(/C=N/NC(=O)c2cc3c(ccc4ccccc43)o2)c2ccccc21` [WCI-1031, methyl (E)-2-(2-methyl-3-((2-(naphtho[2,1-b]furan-2-carbonyl) hydrazono)methyl)-1H-indole-1-yl)acetate], the tumor growth inhibition ([1]; 10 mg/kg) was 9.3%, the tumor weight reduction ([1]; 10 mg/kg) was 10.7% and the tumor growth inhibition ([1]; 20 mg/kg, p<0.001) was 37.2%. The tumor weight reduction ([1]; 20 mg/kg, p<0.001) was 38.0%, the IC50 [2] was 503 nM and the IC50 [3] was 333 nM. It also gave an IC50 [4] of 186 nM, an IC50 [5] of 2400 nM and an IC50 [6] of 290 nM. For the same compound, the IC50 [7] was 1320 nM, the IC50 [8] was 549 nM and the IC50 [9] was 1120 nM. For the same compound, the IC50 [10] was 376 nM, the IC50 [11] was 262 nM and the IC50 [12] was 297 nM. For the same compound, the IC50 [13] was 493 nM and the IC50 [14] was 549 nM.
